In patent US20090081721A1, “HIGH-THROUGHPUT CELL ASSAYS” (The Regents of the University of California, priority 2007, published 2009):
≈ marks a conversion by molar mass, not a printed value. Like-named read-outs stand apart in the source and are kept apart here.

How the values were obtained:
P. mirabilis [1] = assay: Minimum inhibitory concentration (traditional susceptibility testing); type: cell-based; details: Proteus mirabilis
Method: (§1) Minimum inhibitory concentrations are determined by inoculating several cultures of bacteria in separate tubes or wells of broth that typically contain a 2-fold serial dilution of an antimicrobial.

E. coli = assay: Isothermal titrative calorimetry (ITC) susceptibility test, power output and CFUs recovered; type: cell-based; details: for Exponential increase in energy after injection (ITC thermogram): 10^4 wild-type antibiotic susceptible E. coli, 1 ml Mueller-Hinton broth, injection at 7,200 sec, 14,400 sec total
Method: (§2) In general, the susceptibility of bacterial strains can be tested by loading the chamber of an isothermal titrative calorimeter with a single bacterial strain, holding a constant temperature of 37° C. for a set time period (e.g., 14,400 seconds (4 hours)) and monitoring the power produced by the bacteria before and after application of an antimicrobial. Following the loading of the calorimeter, there is an initial energy spike within the first 1500 seconds (25 minutes) that is a normal equilibration period for a calorimeter. After the instrument and sample have equilibrated, the energy produced by a normally growing and dividing culture increases in an exponential manner, similar to a log phase growth curve of a microbial culture based on optical density (OD). Like the exponential increase in OD observed for a growing culture, the exponential increase in energy produced also seems to be associated with an increased number of cells in the medium because the number of cells retrieved from the calorimeter following a susceptibility test increases by about 2-3 orders of magnitude. (See Table 1).
In one aspect, the method is practiced by loading into a Isothermal Titrative Calorimetry (ITC) various drugs or antibiotics to which the cells such as microorganisms may be susceptible. The antibiotics can be loaded at different rates and at different growth densities. The difference in power produced by the sample co-cultured with the antibiotics are then measured and compared to the same untreated culture or culture treated with water. The data is differentiated to find the maximum growth rate (dP/dt), and integrated to determine the total microjoules produced by the culture after an antimicrobial was injected. If the organism is resistant to the antibiotic, the maximum growth rate is similar to that when the co-cultured with water. If the microorganism is sensitive to the antibiotic, maximum dP/dt and total microjoule (μJ) for the antimicrobial treated sample are much lower than the untreated sample or the sample treated with water. […]

A. baumanii [2] = assay: Minimum inhibitory concentration (traditional susceptibility testing); type: cell-based; details: Acinetobacter baumannii; wild-type ampicillin and ciprofloxacin resistant A. baumanii strain used in ITC
Method: as §1

P. mirabilis [3] = assay: Isothermal titrative calorimetry (ITC) susceptibility test, power output and CFUs recovered; type: cell-based, Proteus mirabilis; details: for Exponential increase in power (μW) after injection (ITC thermogram): injection at 7,200 sec, 14,400 sec total; for Number of microbes (CFUs) in calorimetry chamber after incubation: 10^5 loaded, 4-hour monitoring; for Max dP/dt (100 save) after injection / Total μJ produced after injection: ciprofloxacin resistant, ampicillin resistant strain
Method: as §2
(§3) In one aspect, the method is practiced by loading into a Isothermal Titrative Calorimetry (ITC) various drugs or antibiotics to which the cells such as microorganisms may be susceptible. The antibiotics can be loaded at different rates and at different growth densities. The difference in power produced by the sample co-cultured with the antibiotics are then measured and compared to the same untreated culture or culture treated with water. The data is differentiated to find the maximum growth rate (dP/dt), and integrated to determine the total microjoules produced by the culture after an antimicrobial was injected. If the organism is resistant to the antibiotic, the maximum growth rate is similar to that when the co-cultured with water. If the microorganism is sensitive to the antibiotic, maximum dP/dt and total microjoule (μJ) for the antimicrobial treated sample are much lower than the untreated sample or the sample treated with water. See FIGS. 6 through 9 for exemplary ITC-generated growth data.
(§4) The susceptibility of bacterial strains was tested by loading the chamber of an Isothermal Titrative Calorimeter (Calorimetry Sciences Corporation (CSC) and others are commercially available, see microcal.com/index, last accessed on Dec. 28, 2007) with a single bacterial strain, holding a constant temperature of 37° C. for 14,400 seconds (4 hours) and monitoring the power produced by the bacteria before and after application of an antimicrobial. Following the loading of the calorimeter, there is an initial energy spike within the first 1500 seconds (25 minutes) that is a normal equilibration period for a calorimeter. After the instrument and sample have equilibrated, the energy produced by a normally growing and dividing culture increases in an exponential manner, similar to a log phase growth curve of a microbial culture based on optical density (OD). Like the exponential increase in OD observed for a growing culture, the exponential increase in energy produced also seems to be associated with an increased number of cells in the medium because the number of cells retrieved from the calorimeter following a susceptibility test increases by 2-3 orders of magnitude. (See Table 1). A second spike in heat transfer being produced/absorbed in the calorimeter is associated with injection of either water or an antimicrobial into the injection chamber. This spike can be attributed to the enthalpy associated with dilution of the injected solution into the growth medium. […] If a strain is susceptible, a rise in power is not observed. If the strain is resistant to the agent or antimicrobial, the exponential rise in power is observed.
. H2O, ampicillin, or ciprofloxacin was injected into the chamber at 7,200 sec (2 hours). […]

K. pneumoniae [4] = assay: as above; type: cell-based, Klebsiella pneumoniae; details: for Number of microbes (CFUs) in calorimetry chamber after incubation: 10^5 loaded, 4-hour monitoring; for Max dP/dt (100 save) after injection / Total μJ produced after injection: ciprofloxacin susceptible, ampicillin resistant strain
Method: as §2, §3, §4
(§5) […]. H2O, ampicillin, or ciprofloxacin was injected into the chamber at 7,200 sec (2 hours). […]

A. baumanii [5] = assay: as above; type: cell-based, Acinetobacter baumanii; details: for Exponential increase in power (μW) after injection (ITC thermogram): 10^5 A. baumanii, 1 ml Mueller-Hinton broth, injection at 7,200 sec, 14,400 sec total; for Number of microbes (CFUs) in calorimetry chamber after incubation: 10^5 loaded, 4-hour monitoring; for Max dP/dt (100 save) after injection / Total μJ produced after injection: ciprofloxacin resistant, ampicillin resistant strain
Method: as §2, §3, §4, §5

K. pneumoniae [6] = assay: Minimum inhibitory concentration (traditional susceptibility testing); type: cell-based; details: Klebsiella pneumoniae
Method: as §1

[7] = 10^5 P. mirabilis, 1 ml Mueller-Hinton broth

SMILES: CC(C)(O/N=C(\C(=O)N[C@@H]1C(=O)N2C(C(=O)[O-])=C(C[n+]3ccccc3)CS[C@H]12)c1csc(N)n1)C(=O)O [ceftazidime]
- MIC (P. mirabilis [1]): 128 µg/mL (≈ 234 µM)

SMILES: O=C(O)c1cn(C2CC2)c2cc(N3CCNCC3)c(F)cc2c1=O [Ciprofloxacin, ciprofloxacin]
- Exponential increase in energy after injection (ITC thermogram) (E. coli): exponential increase in energy only continued in the sample injected with H2O
- Number of microbes (CFUs) in calorimetry chamber after incubation (E. coli; Ciprofloxacin 2 μg/ml, 10^4 loaded, 4-hour monitoring): 1.7 × 10^7 CFUs
- MIC (P. mirabilis [1]; ampicillin resistant, weakly ciprofloxacin resistant P. mirabilis strain used in ITC, read-out: MIC): 4 µg/mL (≈ 12.1 µM)
- MIC (A. baumanii [2]): > 32 µg/mL
- Rate of exponential increase in power after injection, compared with ampicillin or H2O (P. mirabilis [3]; 10^5 P. mirabilis, 1 ml Mueller-Hinton broth, injection at 7,200 sec): lower than for ampicillin or H2O
- Exponential increase in power (μW) after injection (ITC thermogram) (P. mirabilis [3]; [7]): exponential increase in power continued in all three samples
- Number of microbes (CFUs) in calorimetry chamber after incubation (P. mirabilis [3]; Ciprofloxacin 2 μg/ml): 4.1 × 10^6 CFUs
- Max dP/dt (100 save) after injection (P. mirabilis [3]; Ciprofloxacin 2 μg/ml): 0.012
- Total μJ produced after injection (P. mirabilis [3]; Ciprofloxacin 2 μg/ml): 79,439 μJ
- Number of microbes (CFUs) in calorimetry chamber after incubation (K. pneumoniae [4]; Ciprofloxacin 2 μg/ml): 3.6 × 10^7 CFUs
- Max dP/dt (100 save) after injection (K. pneumoniae [4]; Ciprofloxacin 2 μg/ml): 0.003
- Total μJ produced after injection (K. pneumoniae [4]; Ciprofloxacin 2 μg/ml): 24,676 μJ
- Exponential increase in power (μW) after injection (ITC thermogram) (A. baumanii [5]): exponential increase in power continued in all three samples
- Number of microbes (CFUs) in calorimetry chamber after incubation (A. baumanii [5]; Ciprofloxacin 2 μg/ml): 2.1 × 10^7 CFUs
- Max dP/dt (100 save) after injection (A. baumanii [5]; Ciprofloxacin 2 μg/ml): 0.027
- Total μJ produced after injection (A. baumanii [5]; Ciprofloxacin 2 μg/ml): 100,846 μJ

SMILES: CC1(C)S[C@@H]2[C@H](NC(=O)[C@H](N)c3ccccc3)C(=O)N2[C@H]1C(=O)O [Ampicillin, ampicillin]
- Exponential increase in energy after injection (ITC thermogram) (E. coli): exponential increase in energy only continued in the sample injected with H2O
- MIC (P. mirabilis [1]): > 1020 µg/mL
- MIC (K. pneumoniae [6]): > 1020 µg/mL
- Exponential increase in power (μW) after injection (ITC thermogram) (P. mirabilis [3]; [7]): exponential increase in power continued in all three samples
- Number of microbes (CFUs) in calorimetry chamber after incubation (P. mirabilis [3]; Ampicillin 40 μg/ml): 9.0 × 10^5 CFUs
- Max dP/dt (100 save) after injection (P. mirabilis [3]; Ampicillin 40 μg/ml): 0.027
- Total μJ produced after injection (P. mirabilis [3]; Ampicillin 40 μg/ml): 161,844 μJ
- Exponential increase in power (μW) after injection (ITC thermogram) (K. pneumoniae [4]; 10^5 K. pneumoniae, 1 ml Mueller-Hinton broth, injection at 7,200 sec, 14,400 sec total): exponential increase in power continued in the sample injected with H2O and ampicillin
- Number of microbes (CFUs) in calorimetry chamber after incubation (K. pneumoniae [4]; Ampicillin 40 μg/ml): 2.0 × 10^7 CFUs
- Max dP/dt (100 save) after injection (K. pneumoniae [4]; Ampicillin 40 μg/ml): 0.029
- Total μJ produced after injection (K. pneumoniae [4]; Ampicillin 40 μg/ml): 139,108 μJ
- Exponential increase in power (μW) after injection (ITC thermogram) (A. baumanii [5]): exponential increase in power continued in all three samples
- Number of microbes (CFUs) in calorimetry chamber after incubation (A. baumanii [5]; Ampicillin 40 μg/ml): 3.0 × 10^7 CFUs
- Max dP/dt (100 save) after injection (A. baumanii [5]; Ampicillin 40 μg/ml): 0.026
- Total μJ produced after injection (A. baumanii [5]; Ampicillin 40 μg/ml): 91,240 μJ
